Laboratory results reported in publication PMC7948515 (ACS chemical neuroscience, 2020).

Biological target: T1, horse spleen apoferritin (HSAF) (Equus caballus, UniProt P02791)
T1 sequence (P02791 2-175): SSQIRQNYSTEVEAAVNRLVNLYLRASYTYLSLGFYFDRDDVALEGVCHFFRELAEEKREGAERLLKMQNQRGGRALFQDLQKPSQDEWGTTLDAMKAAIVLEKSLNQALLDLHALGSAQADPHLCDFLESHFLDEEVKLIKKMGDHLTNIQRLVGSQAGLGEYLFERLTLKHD
Test: 1-AMA fluorescence displacement
Format: binding

SMILES	IC50
CC(C)c1cccc(C2(C(F)(F)F)N=N2)c1F [compound 1, 3-(2-fluoro-3-isopropylphenyl)-3-(trifluoromethyl)-3H-diazirine]	17 µM
CC(C)c1cccc(C(C)C)c1F [fropofol]	11 µM
